In data set [1] the test system is cell–cell fusion reaction between target cells expressing CD4/CCR5 and effector cells expressing the envelope protein of HIV-1. The class given is cell-based.
Data set [2] relates to HIV-1MM (R5MDR). As to conditions: read-out: Anti-HIV-1 activity HIV-1MM (R5MDR) IC50 ± SD; inhibition of HIV p24 antigen expression in PBMC, mean ± SD, triplicate.
Data set [3] relates to HIV-1Ba-L (R5). As to conditions: inhibition of HIV p24 antigen expression in PBMC, mean ± SD, triplicate.
The subject of data set [4] is broad panel of receptors and transporters including the other chemokines. Kind of data set: Broad panel of receptors and transporters including the other chemokines.
The conditions of data set [5]: up to the dosage of 100 mg/kg, po.
For data set [6] the following is noted: rat, 10 mg/kg, po.
Data set [7] deals with CCR5/hRANTES (Cavia porcellus, UniProt A0A286Y1F6). As to conditions: read-out: CCR5/hRANTES Ca assay IC50; Guinea pig.
CCR5/hRANTES, sequence (A0A286Y1F6 1-353): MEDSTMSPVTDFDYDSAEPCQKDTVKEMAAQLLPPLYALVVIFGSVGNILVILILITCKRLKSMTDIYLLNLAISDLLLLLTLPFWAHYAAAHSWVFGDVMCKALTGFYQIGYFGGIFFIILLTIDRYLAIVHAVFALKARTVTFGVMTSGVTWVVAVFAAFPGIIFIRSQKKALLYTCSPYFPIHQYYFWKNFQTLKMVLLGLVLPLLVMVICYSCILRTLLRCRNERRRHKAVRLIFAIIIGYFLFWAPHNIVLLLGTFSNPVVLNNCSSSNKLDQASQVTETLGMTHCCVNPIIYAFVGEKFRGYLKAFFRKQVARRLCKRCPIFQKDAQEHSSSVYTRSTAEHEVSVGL
A short description of data set [8]: AMES test.
Data set [9] can be described thus: in vivo. The conditions noted are these: rat, po, 10 mg/kg.
For data set [10] the following is noted: pH 6.8; cited from earlier work.
The target of data set [11] is T1, human CCR5 (Homo sapiens, UniProt P51681). The class given is cell-based.
T1 sequence (P51681 whole entry): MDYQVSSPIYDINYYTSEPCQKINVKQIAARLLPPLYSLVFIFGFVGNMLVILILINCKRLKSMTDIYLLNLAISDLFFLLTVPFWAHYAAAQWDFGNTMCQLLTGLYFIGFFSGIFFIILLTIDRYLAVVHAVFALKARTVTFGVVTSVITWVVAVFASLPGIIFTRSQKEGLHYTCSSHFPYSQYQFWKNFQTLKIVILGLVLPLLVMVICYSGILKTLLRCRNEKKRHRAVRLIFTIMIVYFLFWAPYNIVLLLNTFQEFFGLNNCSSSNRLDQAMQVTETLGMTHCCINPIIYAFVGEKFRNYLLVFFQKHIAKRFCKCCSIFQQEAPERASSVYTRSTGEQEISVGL
For data set [12], the target named is T1, human CCR5. As to conditions: (3R,1′R)-configuration versus other stereoisomers; cited from earlier work.

Where a name gives a salt, the structure may show the parent alone. Read-outs that look alike come from different tables or passages of the source. Where only a bound is given, the exact number is not on record here.

One may read the IC90 as the concentration needed for an effect of 90%. The AUC is the area under the concentration-time curve, a measure of exposure. The Cmax is the maximum level reached in the sampled fluid or tissue.

On to `CCCN1C(=O)[C@@H]([C@H](O)C2CCCCC2)NC(=O)C12CCN(Cc1ccc(Oc3ccc(C(=O)O)cc3)cc1)CC2` [Compound 25, 4-[4-({(3R)-3-[(R)-Cyclohexyl(hydroxy)methyl]-2,5-dioxo-1-propyl-1,4,9-triazaspiro[5.5]undec-9-yl}methyl)phenoxy]benzoic acid hydrochloride], for which the IC50 in data set [1] (read-out: Fusion assay) turned out to be 112 nM.

For the compound `CNC(=O)c1ccc(Oc2ccc(CN3CCC4(CC3)C(=O)N[C@H]([C@H](O)C3CCCCC3)C(=O)N4C)cc2)cc1` [Compound 22, 4-[4-({(3R)-3-[(R)-Cyclohexyl(hydroxy)methyl]-1-methyl-2,5-dioxo-1,4,9-triazaspiro[5.5]undec-9-yl}methyl)phenoxy]-N-methylbenzamide hydrochloride], the IC50 in [1] (read-out: Fusion assay) came to 1860 nM.

For the compound SCH-351125, the IC50 in data set [2] was 3 ± 0.5 nM; in data set [3] (read-out: Anti-HIV-1 activity HIV-1Ba-L (R5) IC50 ± SD), 4 ± 2 nM. For the same compound, the IC90 in data set [3] (read-out: Anti-HIV-1 activity HIV-1Ba-L (R5) IC90 ± SD) was 79 ± 52 nM.

For the compound `CCCCN1C(=O)[C@@H]([C@H](O)C2CCCCC2)NC(=O)C12CCN(Cc1ccc(Oc3ccc(C(=O)O)cc3)cc1)CC2.Cl` [Compound 6a, 4-[4-({(3R)-1-Butyl-3-[(R)-cyclohexyl(hydroxy)methyl]-2,5-dioxo-1,4,9-triazaspiro[5.5]undec-9-yl}methyl)phenoxy]benzoic acid hydrochloride], the “activity against a broad panel of receptors and transporters” value in data set [4] was “no significant activity”. Besides, in data set [5], the “14-day rat safety study result” value is reported as “did not show any significant safety problem”. In addition, in data set [6], the BA amounted to 23%. Besides, the IC50 in [7] is over 30000 nM. For the same compound, the AMES test result in [8] is recorded as “did not show any significant safety problem”.

Turning to `CCCCN1C(=O)C(CC2CCCCC2)NC(=O)C12CCN(Cc1ccc(Oc3ccc(C(=O)NC)cc3)cc1)CC2.Cl` (stereo not drawn) [Compound 2], in [6], the BA came out at 1.9%.

On to `CCCCN1C(=O)[C@@H]([C@H](O)C2CCCCC2)NC(=O)C12CCN(Cc1ccc(Oc3ccc(NS(C)(=O)=O)cc3)cc1)CC2.Cl` [Compound 13, N-{4-[4-({(3R)-1-Butyl-3-[(R)-cyclohexyl (hydroxy)methyl]-2,5-dioxo-1,4,9-triazaspiro[5.5]undec-9-yl}methyl)phenoxy]phenyl}methanesulfonamide hydrochloride], for which, in [9], the AUC stood at 242 ng·h/mL and the highest level (Cmax) was 50 ng/mL. In data set [6], this compound registered a BA of 5%.

In the case of `CCCCN1C(=O)[C@@H]([C@H](O)C2CCC(O)CC2)NC(=O)C12CCN(Cc1ccc(Oc3ccc(C(=O)O)cc3)cc1)CC2` (stereo partly drawn) [Compound 20a, 4-[4-({(3R)-1-Butyl-3-[(R)-hydroxy(4-hydroxycyclohexyl)methyl]-2,5-dioxo-1,4,9-triazaspiro[5.5]undec-9-yl}methyl)phenoxy]benzoic acid hydrochloride], the IC50 in [1] (read-out: Fusion assay IC50) amounted to 537 nM.

For `CCCCN1C(=O)C(C(C)C)NC(=O)C12CCN(Cc1ccc(Oc3ccccc3)cc1)CC2.Cl` (stereo not drawn) [Compound 1], the aqueous solubility result in data set [10] is reported as “less than 0.2 μg/ml”. Also, the BA in [6] is 1.3%.

`CCCCN1C(=O)[C@@H]([C@H](O)C(C)C)NC(=O)C12CCN(Cc1ccc(Oc3ccc(C(=O)O)cc3)cc1)CC2.Cl` [Compound 14, 4-[4-({(3R)-1-Butyl-3-[(1R)-1-hydroxy-2-methylpropyl]-2,5-dioxo-1,4,9-triazaspiro[5.5]undec-9-yl}methyl)phenoxy]benzoic acid hydrochloride] displayed an exposure (AUC) in data set [9] of 150 ng·h/mL. This compound showed a BA in [6] of 5.9%.

For the compound `CNC(=O)c1ccc(Oc2ccc(CN3CCC4(CC3)C(=O)N[C@H]([C@H](O)C3CCCCC3)C(=O)N4CCN)cc2)cc1.Cl.Cl` [Compound 32, 4-[4-({(3R)-1-(2-Aminoethyl)-3-[(R)-cyclohexyl(hydroxy)methyl]-2,5-dioxo-1,4,9-triazaspiro[5.5]undec-9-yl}methyl)phenoxy]-N-methylbenzamide dihydrochloride], the “fold less potent antagonist activity relative to 10” value in data set [11] is over 10 fold.

Turning to `CCCCN1C(=O)[C@@H](C(O)C2CCC(O)CC2)NC(=O)C12CCN(Cc1ccc(Oc3ccc(C(=O)O)cc3)cc1)CC2` (stereo in doubt) [Compound 20b, 4-[4-({(3R)-1-Butyl-3-[(R)-hydroxy(4-hydroxycyclohexyl)methyl]-2,5-dioxo-1,4,9-triazaspiro[5.5]undec-9-yl}methyl)phenoxy]benzoic acid hydrochloride], in data set [1] (read-out: Fusion assay IC50), the IC50 amounted to 129 nM.

Regarding `CCCCN1C(=O)[C@@H]([C@H](O)C(C)C)NC(=O)C12CCN(Cc1ccc(Oc3ccccc3)cc1)CC2.Cl` [Compound 3], the “fold more potency than the other stereoisomers in the Ca assay” value in data set [12] is on record as 4.5–12 fold.

Regarding `CNC(=O)c1ccc(Oc2ccc(CN3CCC4(CC3)C(=O)N[C@H]([C@H](O)C3CCCCC3)C(=O)N4CCC(C)O)cc2)cc1` (stereo partly drawn) [Compound 30, 4-(4-{[(3R)-3-[(R)-Cyclohexyl(hydroxy)methyl]-1-(3-hydroxybutyl)-2,5-dioxo-1,4,9-triazaspiro[5.5]undec-9-yl]methyl}phenoxy)-N-methylbenzamide hydrochloride], the IC50 in data set [1] (read-out: Fusion assay) was about 10000 nM.

`CCCCN1C(=O)[C@@H]([C@H](O)C2CCOCC2)NC(=O)C12CCN(Cc1ccc(Oc3ccc(C(=O)O)cc3)cc1)CC2` [Compound 19, 4-[4-({(3R)-1-Butyl-3-[(R)-hydroxy(tetrahydro-2H-pyran-4-yl)methyl]-2,5-dioxo-1,4,9-triazaspiro[5.5]undec-9-yl}methyl)phenoxy]benzoic acid hydrochloride]: the IC50 in [1] (read-out: Fusion assay IC50) was found to be 302 nM.

For the compound `CCCCN1C(=O)[C@@H]([C@H](O)C2CCCCC2)NC(=O)C12CCN(Cc1ccc(Oc3ccc(C(=O)NC)cc3)cc1)CC2.Cl` [Compound 10, 4-[4-({(3R)-1-Butyl-3-[(R)-cyclohexyl(hydroxy)methyl]-2,5-dioxo-1,4,9-triazaspiro[5.5]undec-9-yl}methyl)phenoxy]-N-methylbenzamide hydrochloride], in data set [9], the AUC worked out at 1300 ng·h/mL and the concentration peaked (Cmax) at 333 ng/mL. Further, the BA in data set [6] is 10%.

Take `CCCN1C(=O)[C@@H]([C@H](O)C2CCCCC2)NC(=O)C12CCN(Cc1ccc(Oc3ccc(C(=O)NC)cc3)cc1)CC2.Cl` [Compound 26, 4-[4-({(3R)-3-[(R)-Cyclohexyl(hydroxy)methyl]-2,5-dioxo-1-propyl-1,4,9-triazaspiro[5.5]undec-9-yl}methyl)phenoxy]-N-methylbenzamide hydrochloride]: in data set [9], the AUC is 513 ng·h/mL and the Cmax came to 133 ng/mL. This compound also showed a BA in [6] of 11.2%.

Regarding `CCCCN1C(=O)[C@@H]([C@H](O)C2CCCCC2)NC(=O)C12CCN(Cc1ccc(Oc3ccc(O)cc3)cc1)CC2` [Compound 8, (3R)-1-Butyl-3-[(R)-cyclohexyl(hydroxy)methyl]-9-[4-(4-hydroxyphenoxy)benzyl]-1,4,9-triazaspiro[5.5]undecane-2,5-dione hydrochloride], in data set [1] (read-out: Fusion assay IC50), the IC50 is 2.8 nM.

Compound `CCCCN1C(=O)[C@H](CC2CCCCC2)NC(=O)C12CCN(Cc1ccc(Oc3ccc(C(=O)O)cc3)cc1)CC2.Cl` [Compound 5] gave a BA in data set [6] of 34%.

For `CNC(=O)c1ccc(Oc2ccc(CN3CCC4(CC3)C(=O)N[C@H]([C@H](O)C3CCCCC3)C(=O)N4CCN(C)C)cc2)cc1.Cl.Cl` [Compound 33, 4-[4-({(3R)-3-[(R)-Cyclohexyl(hydroxy)methyl]-1-[2-(dimethylamino)ethyl]-2,5-dioxo-1,4,9-triazaspiro[5.5]undec-9-yl}methyl)phenoxy]-N-methylbenzamide dihydrochloride], in data set [11], the “fold less potent antagonist activity relative to 10” value is given as over 10 fold.
